The values below come from patent US10519114B2, “Peptidomimetics and methods of using the same” (The Regents of the University of Michigan, priority 2016, dated 2019).

In assay [1] the target is T1, rat μ (C6-MOR) opioid receptor (Rattus norvegicus, UniProt P33535).
T1 construct: expressed in transfected cells
Kind of assay: Radioligand binding assay, [3H]diprenorphine displacement, MOR. The conditions noted are these: displacement of 0.2 nM [3H]diprenorphine, C6-MOR membranes; mean ± standard error. In outline:
(§1)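 Membranes from C6 glioma cells stably expressing rat MOR or DOR, or CHO cells expressing human KOR (20 μg protein), were incubated with 0.2 nM [3H]diprenorphine and test peptide in 50 mM Tris-HCl pH 7.4 for 1 h at room temperature. Nonspecific binding defined with 10 μM naloxone; Ki from nonlinear regression.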

For assay [2], the target named is T2, rat δ (C6-DOR) opioid receptor (Rattus norvegicus, UniProt P33533).
T2 construct: expressed in transfected cells
The assay can be described thus: Radioligand binding assay, [3H]diprenorphine displacement, DOR. To be noted: displacement of 0.2 nM [3H]diprenorphine, C6-DOR membranes; mean ± standard error. In outline:
as §1

Assay [3] addresses T3, human κ (CHO-KOR) opioid receptor (Homo sapiens, UniProt P41145).
T3 construct: expressed in transfected cells
Kind of assay: Radioligand binding assay, [3H]diprenorphine displacement, KOR. To be noted: displacement of 0.2 nM [3H]diprenorphine, CHO-KOR membranes; mean ± standard error. In outline: as §1

The target of assay [4] is T1, rat μ (C6-MOR) opioid receptor. The assay can be described thus: Stimulation of [35S]GTPγS binding, MOR. The class given is biochemical. The conditions noted are these: for EC50: [35S]GTPγS binding, C6-MOR membranes, mean ± standard error; for Emax: [35S]GTPγS maximal stimulation compared with 10 μM standard DAMGO. The essentials:
(§2)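 Membranes (10–20 μg protein) from C6 glioma cells expressing rat MOR or DOR, or CHO cells expressing human KOR, were incubated 1 h at room temperature with 0.1 nM [35S]GTPγS, 30 μM GDP and test peptides in Tris buffer pH 7.4. Bound label was filtered and counted; maximal stimulation, by nonlinear regression, was relative to 10 μM DAMGO (MOR), DPDPE (DOR) or U69,593 (KOR).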

The target in assay [5] is T2, rat δ (C6-DOR) opioid receptor. Kind of assay: Stimulation of [35S]GTPγS binding, DOR. The class given is biochemical. The conditions noted are these: for EC50 / EC50 (nm) DOR: [35S]GTPγS binding, C6-DOR membranes, mean ± standard error; for Emax / % stimulation DOR: [35S]GTPγS maximal stimulation compared with 10 μM standard DPDPE. The essentials:
as §2

Assay [6] concerns the target T3, human κ (CHO-KOR) opioid receptor. Kind of assay: Stimulation of [35S]GTPγS binding, KOR. The conditions noted are these: for EC50 / EC50 (nm) KOR: [35S]GTPγS binding, CHO-KOR membranes, mean ± standard error; for Emax / % stimulation KOR: [35S]GTPγS maximal stimulation compared with 10 μM standard U-69,593. In kind it is biochemical. The essentials:
as §2

Assay [7] concerns C57BL/6 mice. Kind of assay: Antinociception, warm water tail withdrawal assay.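 As to Antinociceptive activity: fully efficacious means no withdrawal up to the 20 s cutoff.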 The conditions noted are these: mouse tail withdrawal; for Antinociceptive activity: 50° C. water bath, cutoff 20 s, ip; for Duration: duration of antinociceptive action, 50° C. The class given is in vivo. As for the experimental part:
In Vivo Pharmacology. Animals. Adult male C57BL/6 mice weighing between 20 and 30 g at 8-16 weeks old were used for the current experiments (obtained from Jackson Laboratories (Bar Harbor, Me.), Harlan (Indianapolis, Ind.), or bred in-house). Mice were group-housed and had free access to food and water at all times. Experiments were conducted in the housing room, which was maintained on a 12 h light/dark cycle (with lights on at 0700). Each mouse was used only once and experiments were conducted between 11 a.m. and 4 p.m. Studies were performed in accordance with the University of Michigan Committee on the Use and Care of Animals and the Guide for the Care and Use of Laboratory Animals (National Research Council, 2011 publication).
Antinociception. The antinociceptive effects of the compounds disclosed herein and morphine can be evaluated in the warm water tail withdrawal assay using a cumulative dosing procedure. To determine tail withdrawal latencies, each mouse was placed briefly into a plastic, cylindrical restrainer and 2-3 cm of the tail tip was placed into a water bath maintained at 50° C. The latency to withdraw the tail was recorded with a maximum cutoff time of 20 s. […] Each animal received an injection of saline (intraperitoneal, ip) and then 30 min later, the baseline withdrawal latencies were recorded and ranged between 3 and 6 s. Following baseline determinations, three increasing doses (1, 2.2, and 6.8 mg/kg) of 1(4R) were given at 30 min intervals to provide final doses of 1, 3.2, and 10 mg/kg. Thirty minutes after each injection, the tail withdrawal latency was measured as described above. To confirm that 1(4R) was acting at opioid receptors, the cumulative dose response was repeated over the doses 3.2, 10, and 32 mg/kg following a 30 min pretreatment with 1 mg/kg naltrexone (ip). To determine the time-course of antinociceptive action the tail-withdrawal test was performed at varying times following administration of morphine (10 mg/kg, ip) or 1(4R) (10 mg/kg, ip).

T1 sequence (P33535 whole entry): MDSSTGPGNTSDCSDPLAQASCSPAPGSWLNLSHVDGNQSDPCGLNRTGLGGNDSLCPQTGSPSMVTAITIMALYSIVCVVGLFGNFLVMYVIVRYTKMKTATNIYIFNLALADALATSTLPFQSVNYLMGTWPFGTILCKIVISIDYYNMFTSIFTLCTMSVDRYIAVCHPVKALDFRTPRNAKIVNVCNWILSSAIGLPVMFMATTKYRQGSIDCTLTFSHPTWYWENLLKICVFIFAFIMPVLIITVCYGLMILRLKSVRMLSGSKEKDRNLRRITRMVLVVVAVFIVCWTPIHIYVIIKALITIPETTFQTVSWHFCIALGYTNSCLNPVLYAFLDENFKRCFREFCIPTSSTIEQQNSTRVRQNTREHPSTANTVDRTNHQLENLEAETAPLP
T2 sequence (P33533 whole entry): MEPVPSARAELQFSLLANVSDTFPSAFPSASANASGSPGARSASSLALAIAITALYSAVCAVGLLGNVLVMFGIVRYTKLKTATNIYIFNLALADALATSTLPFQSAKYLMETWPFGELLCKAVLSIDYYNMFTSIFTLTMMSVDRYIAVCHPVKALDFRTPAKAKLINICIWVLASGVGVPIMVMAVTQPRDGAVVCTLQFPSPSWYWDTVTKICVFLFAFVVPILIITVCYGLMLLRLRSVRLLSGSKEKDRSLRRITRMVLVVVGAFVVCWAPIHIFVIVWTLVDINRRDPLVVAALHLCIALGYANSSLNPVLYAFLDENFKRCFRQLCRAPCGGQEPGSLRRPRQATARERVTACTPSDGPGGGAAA
T3 sequence (P41145 whole entry): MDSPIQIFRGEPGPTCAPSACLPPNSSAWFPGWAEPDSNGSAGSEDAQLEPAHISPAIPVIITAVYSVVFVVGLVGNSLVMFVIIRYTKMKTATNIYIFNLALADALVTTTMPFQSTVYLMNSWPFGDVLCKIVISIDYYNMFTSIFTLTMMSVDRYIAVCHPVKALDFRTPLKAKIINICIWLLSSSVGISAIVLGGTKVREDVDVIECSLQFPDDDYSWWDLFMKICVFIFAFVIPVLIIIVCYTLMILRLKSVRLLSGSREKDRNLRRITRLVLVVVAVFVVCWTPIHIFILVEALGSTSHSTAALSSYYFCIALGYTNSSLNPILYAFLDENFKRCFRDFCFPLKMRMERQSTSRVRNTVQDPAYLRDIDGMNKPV

With `Cc1cc(O)cc(C)c1C[C@H](N)C(=O)N[C@@H]1CCNc2c(-c3ccoc3)cc(Cc3ccccc3)cc21` [Compound 1094], the inhibition constant Ki in assay [1] amounted to 0.34 ± 0.08 nM; in assay [2] it was 3.49 ± 0.55 nM; in assay [3] it was 27.9 ± 6.24 nM. In addition, the EC50 was found to be 9.77 ± 6.34 nM in assay [4], 74.9 ± 61.5 nM in assay [5] and 290 nM in assay [6]. The Emax was found to be 103 ± 5% in assay [4], 36.7 ± 5.53% in assay [5] and 29% in assay [6]. Further, in assay [7], the Antinociceptive activity result is “Inactive”.

With `Cc1cc(O)cc(C)c1C[C@H](N)C(=O)N[C@@H]1CCNc2c(CCc3ccccc3)cc(Cc3ccccc3)cc21` [Compound 1098], the Ki in assay [1] is 0.64 ± 0.34 nM. In addition, affinity in assay [2] was put at a Ki of 0.69 ± 0.03 nM. Besides, in assay [3], the Ki was found to be 27.5 ± 7.81 nM. In assay [4], this compound displayed an EC50 of 44.4 ± 16.6 nM and an Emax of 78.4 ± 1.26%. Further, in assay [5], the “EC50 (nm) DOR” value is listed as “dns” and the “% stimulation DOR” value is given as “dns”. Besides, in assay [6], the “EC50 (nm) KOR” value was “dns” and the “% stimulation KOR” value was “dns”. The Antinociceptive activity entry in assay [7] is on record as “Inactive”.

`Cc1cc(O)cc(C)c1C[C@H](N)C(=O)N[C@@H]1CCNc2c(CN3CCOCC3)cc(Cc3ccccc3)cc21` [Compound 1099]: the Ki was found to be 0.15 ± 0.04 nM in assay [1], 2.61 ± 0.79 nM in assay [2] and 19.4 ± 8.53 nM in assay [3]. The EC50 in assay [4] came to 1.84 ± 0.41 nM; in assay [5], 172 ± 65.8 nM. For the same compound, the Emax in assay [4] was determined as 96.1 ± 1.76%; in assay [5], 29 ± 6.78%. For the same compound, the “EC50 (nm) KOR” value in assay [6] is “dns”. Moreover, in assay [6], the “% stimulation KOR” value is listed as “dns”. Moreover, the Antinociceptive activity result in assay [7] is on record as “Inactive”.

`CCCCc1cc(Cc2ccccc2)cc2c1NCC[C@H]2NC(=O)[C@@H](N)Cc1c(C)cc(O)cc1C` [Compound 1126] came in with a Ki in assay [1] of 0.75 ± 0.4 nM. Further, the affinity in assay [2], expressed as Ki, was 3.55 ± 0.46 nM. In assay [3], this compound showed a Ki of 34.4 ± 4.7 nM. In assay [4], this compound registered an EC50 of 17.9 ± 5.83 nM and an Emax of 85 ± 2%. In assay [5], this compound gave an EC50 of 200 ± 77 nM and an Emax of 24.9 ± 4.43%. Moreover, in assay [6], the “EC50 (nm) KOR” value is “dns” and the “% stimulation KOR” value is reported as “dns”. Also, in assay [7], the Duration is 150 min and the Antinociceptive activity result is “Fully efficacious”.

For `CCc1cc(Cc2ccccc2)cc2c1NCC[C@H]2NC(=O)[C@@H](N)Cc1c(C)cc(O)cc1C` [Compound 1127], in assay [1], the Ki stood at 0.05 nM. This compound also gave an inhibition constant Ki in assay [2] of 4.6 nM. The same compound had an inhibition constant Ki in assay [3] of 44 nM. In assay [4], the EC50 worked out at 37 nM and the Emax amounted to 75%. In assay [5], this compound showed an EC50 of 23 nM and an Emax of 48%. Also, in assay [6], the “EC50 (nm) KOR” value is listed as “dns” and the “% stimulation KOR” value is given as “dns”. In addition, in assay [7], the Duration worked out at 60 min and the Antinociceptive activity entry is recorded as “Fully efficacious”.

On to `Cc1cc(O)cc(C)c1C[C@H](N)C(=O)N[C@@H]1CCNc2c(Br)cc(Cc3ccccc3)cc21` [Compound 1128], for which the inhibition constant (Ki) worked out at 0.2 nM in assay [1], 2.2 nM in assay [2] and 27 nM in assay [3]. Besides, the concentration giving a half-maximal response (EC50) in assay [4] came to 1.2 nM; in assay [5], 36 nM; in assay [6] it was 300 nM. Besides, the values for the Emax in assay [4], in assay [5] and in assay [6] were 73%, 69% and 30%, respectively. Besides, the Antinociceptive activity result in assay [7] is “Inactive”.

As to `Cc1cc(O)cc(C)c1C[C@H](N)C(=O)N[C@@H]1CCNc2c1cc(Cc1ccccc1)cc2C(F)(F)F` [Compound 1129], the Ki turned out to be 0.3 nM in assay [1], 3.7 nM in assay [2] and 21 nM in assay [3]. Also, the results for the EC50 in assay [4], in assay [5] and in assay [6] were 1.8 nM, 50 nM and 600 nM, respectively. In addition, the Emax stood at 70% in assay [4], 42% in assay [5] and 17% in assay [6]. Besides, the Antinociceptive activity entry in assay [7] is listed as “Inactive”.

In assay [1], `Cc1cc(O)cc(C)c1C[C@H](N)C(=O)N[C@@H]1CCNc2c(C(=O)O)cc(Cc3ccccc3)cc21` [Compound 1130] had a Ki of 0.6 nM. Moreover, the Ki in assay [2] is 2.3 nM. The compound also gave an inhibition constant (Ki) in assay [3] of 700 nM. For the same compound, in assay [4], a half-maximal effect (EC50) was put at 4 nM and the Emax was 60%. In assay [5], the “EC50 (nm) DOR” value is “dns” and the “% stimulation DOR” value is recorded as “dns”. Besides, in assay [6], the “EC50 (nm) KOR” value is “dns” and the “% stimulation KOR” value was “dns”. For the same compound, the Antinociceptive activity entry in assay [7] is on record as “Inactive”.
